Results from patent US20210317134A1, “UBIQUITIN-SPECIFIC-PROCESSING PROTEASE 7 (USP7) MODULATORS AND USES THEREOF” (RAPT THERAPEUTICS, INC., priority 2019, published 2021).

target: USP7 (Homo sapiens, UniProt Q93009); assay: USP7 inhibitory potency (Table 1); format: biochemical
Sequence (Q93009 whole entry): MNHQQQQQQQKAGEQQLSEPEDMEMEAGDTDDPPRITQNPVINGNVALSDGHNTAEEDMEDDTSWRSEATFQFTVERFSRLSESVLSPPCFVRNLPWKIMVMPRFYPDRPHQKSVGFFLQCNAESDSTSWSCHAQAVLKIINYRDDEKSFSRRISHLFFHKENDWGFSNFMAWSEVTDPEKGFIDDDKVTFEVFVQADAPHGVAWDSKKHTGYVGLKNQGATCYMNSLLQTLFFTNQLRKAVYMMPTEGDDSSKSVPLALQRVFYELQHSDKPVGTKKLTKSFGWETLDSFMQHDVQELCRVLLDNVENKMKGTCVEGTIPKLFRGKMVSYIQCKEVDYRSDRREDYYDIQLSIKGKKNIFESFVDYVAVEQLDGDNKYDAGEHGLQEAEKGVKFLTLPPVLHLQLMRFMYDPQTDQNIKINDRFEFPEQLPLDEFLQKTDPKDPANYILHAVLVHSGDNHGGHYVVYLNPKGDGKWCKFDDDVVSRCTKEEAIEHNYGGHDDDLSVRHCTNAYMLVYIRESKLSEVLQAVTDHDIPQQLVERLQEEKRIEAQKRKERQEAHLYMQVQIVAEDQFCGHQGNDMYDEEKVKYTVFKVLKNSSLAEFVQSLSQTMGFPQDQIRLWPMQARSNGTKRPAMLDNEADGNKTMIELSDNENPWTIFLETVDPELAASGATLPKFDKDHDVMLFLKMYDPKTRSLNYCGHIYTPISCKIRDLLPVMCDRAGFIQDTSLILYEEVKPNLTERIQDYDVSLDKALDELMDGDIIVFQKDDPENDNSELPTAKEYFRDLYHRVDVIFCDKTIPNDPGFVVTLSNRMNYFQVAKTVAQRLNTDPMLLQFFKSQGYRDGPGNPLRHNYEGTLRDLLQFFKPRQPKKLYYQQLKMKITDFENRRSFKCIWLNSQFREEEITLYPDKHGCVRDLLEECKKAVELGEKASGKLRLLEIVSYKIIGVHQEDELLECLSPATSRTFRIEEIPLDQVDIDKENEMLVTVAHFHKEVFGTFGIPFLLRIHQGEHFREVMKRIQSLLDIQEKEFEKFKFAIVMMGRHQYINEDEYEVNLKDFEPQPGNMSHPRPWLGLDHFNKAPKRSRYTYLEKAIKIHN

| Structure (SMILES) | IC50 [nM] |
| --- | --- |
| OC1(c2cc3nccc(-c4cc(Cl)cc5c4O[C@@H](c4onc6c4CNCC6)C5)c3s2)COC1 [(R)-3-(7-(5-chloro-2-(4,5,6,7-tetrahydroisoxazolo[4,3-c]pyridin-3-yl)-2,3-dihydrobenzofuran-7-yl)thieno[3,2-b]pyridin-2-yl)oxetan-3-ol] | < 1000 |
| CN(C)C(=O)CCc1cc2nccc(-c3cc(Cl)cc4c3O[C@@H](C(=O)N3CCNCC3)C4)c2s1 [(R)-3-(7-(5-chloro-2-(piperazine-1-carbonyl)-2,3-dihydrobenzofuran-7-yl)thieno[3,2-b]pyridin-2-yl)-N,N-dimethylpropanamide] | 1000 to 10000 |
| CNC(=O)CCc1cc2nccc(-c3cc(Cl)cc4c3O[C@@H](C(=O)N3CCNCC3)C4)c2s1 [(R)-3-(7-(5-chloro-2-(piperazine-1-carbonyl)-2,3-dihydrobenzofuran-7-yl)thieno[3,2-b]pyridin-2-yl)-N-methylpropanamide] | < 1000 |
| O[C@]1(c2cc3nccc(-c4cc(Cl)cc5c4O[C@@H](c4onc6c4CNCC6)C5)c3s2)CCOC1 [(R)-3-(7-((R)-5-chloro-2-(4,5,6,7-tetrahydroisoxazolo[4,3-c]pyridin-3-yl)-2,3-dihydrobenzofuran-7-yl)thieno[3,2-b]pyridin-2-yl)tetrahydrofuran-3-ol] | < 1000 |
| CN1CCC(=O)N(Cc2cc3nccc(-c4cc(Cl)cc5c4O[C@@H](C(=O)N4CCNCC4)C5)c3s2)C1=O [(R)-3-((7-(5-chloro-2-(piperazine-1-carbonyl)-2,3-dihydrobenzofuran-7-yl)thieno[3,2-b]pyridin-2-yl)methyl)-1-methyldihydropyrimidine-2,4(1H,3H)-dione] | < 1000 |
| CN1CC(=O)N(Cc2cc3nccc(-c4cc(Cl)cc5c4O[C@@H](C(=O)N4CCNCC4)C5)c3s2)C1=O [(R)-3-((7-(5-chloro-2-(piperazine-1-carbonyl)-2,3-dihydrobenzofuran-7-yl)thieno[3,2-b]pyridin-2-yl)methyl)-1-methylimidazolidine-2,4-dione] | < 1000 |
| Cn1ccc(=O)n(Cc2cc3nccc(-c4cc(Cl)cc5c4O[C@@H](C(=O)N4CCNCC4)C5)c3s2)c1=O [(R)-3-((7-(5-chloro-2-(piperazine-1-carbonyl)-2,3-dihydrobenzofuran-7-yl)thieno[3,2-b]pyridin-2-yl)methyl)-1-methylpyrimidine-2,4(1H,3H)-dione] | < 1000 |
| O=C([C@H]1Cc2cc(Cl)cc(-c3ccnc4cc(CN5C(=O)CCNC5=O)sc34)c2O1)N1CCNCC1 [(R)-3-((7-(5-chloro-2-(piperazine-1-carbonyl)-2,3-dihydrobenzofuran-7-yl)thieno[3,2-b]pyridin-2-yl)methyl)dihydropyrimidine-2,4(1H,3H)-dione] | < 1000 |
| O=C([C@H]1Cc2cc(Cl)cc(-c3ccnc4cc(CN5C(=O)CNC5=O)sc34)c2O1)N1CCNCC1 [(R)-3-((7-(5-chloro-2-(piperazine-1-carbonyl)-2,3-dihydrobenzofuran-7-yl)thieno[3,2-b]pyridin-2-yl)methyl)imidazolidine-2,4-dione] | < 1000 |
| O=C1OCCN1Cc1cc2nccc(-c3cc(Cl)cc4c3O[C@@H](C(=O)N3CCNCC3)C4)c2s1 [(R)-3-((7-(5-chloro-2-(piperazine-1-carbonyl)-2,3-dihydrobenzofuran-7-yl)thieno[3,2-b]pyridin-2-yl)methyl)oxazolidin-2-one] | < 1000 |
| O=C([C@H]1Cc2cc(Cl)cc(-c3ccnc4cc(CN5C(=O)COC5=O)sc34)c2O1)N1CCNCC1 [(R)-3-((7-(5-chloro-2-(piperazine-1-carbonyl)-2,3-dihydrobenzofuran-7-yl)thieno[3,2-b]pyridin-2-yl)methyl)oxazolidine-2,4-dione] | < 1000 |
| O=C([C@H]1Cc2cc(Cl)cc(-c3ccnc4cc(Cn5cnccc5=O)sc34)c2O1)N1CCNCC1 [(R)-3-((7-(5-chloro-2-(piperazine-1-carbonyl)-2,3-dihydrobenzofuran-7-yl)thieno[3,2-b]pyridin-2-yl)methyl)pyrimidin-4(3H)-one] | < 1000 |
| O=C([C@H]1Cc2cc(Cl)cc(-c3ccnc4cc(Cn5c(=O)cc[nH]c5=O)sc34)c2O1)N1CCNCC1 [(R)-3-((7-(5-chloro-2-(piperazine-1-carbonyl)-2,3-dihydrobenzofuran-7-yl)thieno[3,2-b]pyridin-2-yl)methyl)pyrimidine-2,4(1H,3H)-dione] | < 1000 |
| O=C([C@H]1Cc2cc(Cl)cc(-c3ccnc4cc(CN5C(=O)CSC5=O)sc34)c2O1)N1CCNCC1 [(R)-3-((7-(5-chloro-2-(piperazine-1-carbonyl)-2,3-dihydrobenzofuran-7-yl)thieno[3,2-b]pyridin-2-yl)methyl)thiazolidine-2,4-dione] | < 1000 |
| Cn1nc2c(c1[C@H]1Cc3cc(Cl)cc(-c4ncnc5ccoc45)c3O1)CNCC2 [(R)-4-(5-chloro-2-(2-methyl-4,5,6,7-tetrahydro-2H-pyrazolo[4,3-c]pyridin-3-yl)-2,3-dihydrobenzofuran-7-yl)furo[3,2-d]pyrimidine] | < 1000 |
| Cn1nc2c(c1[C@H]1Cc3cc(Cl)cc(-c4ncnc5ccsc45)c3O1)CNCC2 [(R)-4-(5-chloro-2-(2-methyl-4,5,6,7-tetrahydro-2H-pyrazolo[4,3-c]pyridin-3-yl)-2,3-dihydrobenzofuran-7-yl)thieno[3,2-d]pyrimidine] | < 1000 |
| N#Cc1ccc2c(-c3cc(Cl)cc4c3O[C@@H](c3n[nH]c5c3CNCC5)C4)ccnc2c1 [(R)-4-(5-chloro-2-(4,5,6,7-tetrahydro-1H-pyrazolo[4,3-c]pyridin-3-yl)-2,3-dihydrobenzofuran-7-yl)quinoline-7-carbonitrile] | < 1000 |

| Structure (SMILES) | IC50 [nM] |
| --- | --- |
| Cc1cc(-c2cc(Cl)cc3c2O[C@@H](c2onc4c2CNCC4)C3)c2ccc(C#N)cc2n1 [(R)-4-(5-chloro-2-(4,5,6,7-tetrahydroisoxazolo[4,3-c]pyridin-3-yl)-2,3-dihydrobenzofuran-7-yl)-2-methylquinoline-7-carbonitrile] | 10000 to 30000 |
| Clc1cc2c(c(-c3ccnc4c3CC3(COCOC3)C4)c1)O[C@@H](c1onc3c1CNCC3)C2 [(R)-4-(5-chloro-2-(4,5,6,7-tetrahydroisoxazolo[4,3-c]pyridin-3-yl)-2,3-dihydrobenzofuran-7-yl)-5,7-dihydrospiro[cyclopenta[b]pyridine-6,5′-[1,3]dioxane]] | < 1000 |
| N#Cc1cc2nccc(-c3cc(Cl)cc4c3O[C@@H](c3onc5c3CNCC5)C4)c2cc1F [(R)-4-(5-chloro-2-(4,5,6,7-tetrahydroisoxazolo[4,3-c]pyridin-3-yl)-2,3-dihydrobenzofuran-7-yl)-6-fluoroquinoline-7-carbonitrile] | < 1000 |
| Cc1cc2c(-c3cc(Cl)cc4c3O[C@@H](c3onc5c3CNCC5)C4)ccnc2cc1C#N [(R)-4-(5-chloro-2-(4,5,6,7-tetrahydroisoxazolo[4,3-c]pyridin-3-yl)-2,3-dihydrobenzofuran-7-yl)-6-methylquinoline-7-carbonitrile] | 1000 to 10000 |
| N#Cc1ccc2nccc(-c3cc(Cl)cc4c3O[C@@H](c3onc5c3CNCC5)C4)c2c1 [(R)-4-(5-chloro-2-(4,5,6,7-tetrahydroisoxazolo[4,3-c]pyridin-3-yl)-2,3-dihydrobenzofuran-7-yl)quinoline-6-carbonitrile] | 1000 to 10000 |
| N#Cc1ccc2c(-c3cc(Cl)cc4c3O[C@@H](c3onc5c3CNCC5)C4)ccnc2c1 [(R)-4-(5-chloro-2-(4,5,6,7-tetrahydroisoxazolo[4,3-c]pyridin-3-yl)-2,3-dihydrobenzofuran-7-yl)quinoline-7-carbonitrile] | < 1000 |
| NC(=O)c1ccc2c(-c3cc(Cl)cc4c3O[C@@H](c3onc5c3CNCC5)C4)ccnc2c1 [(R)-4-(5-chloro-2-(4,5,6,7-tetrahydroisoxazolo[4,3-c]pyridin-3-yl)-2,3-dihydrobenzofuran-7-yl)quinoline-7-carboxamide] | 1000 to 10000 |
| CN1CCc2noc([C@H]3Cc4cc(Cl)cc(-c5ccnc6cc(C#N)ccc56)c4O3)c2C1 [(R)-4-(5-chloro-2-(5-methyl-4,5,6,7-tetrahydroisoxazolo[4,3-c]pyridin-3-yl)-2,3-dihydrobenzofuran-7-yl)quinoline-7-carbonitrile] | 1000 to 10000 |
| Clc1cc2c(c(-c3ccnc4ccsc34)c1)O[C@@H](c1ocnc1CN1CCC1)C2 [(R)-4-(azetidin-1-ylmethyl)-5-(5-chloro-7-(thieno[3,2-b]pyridin-7-yl)-2,3-dihydrobenzofuran-2-yl)oxazole] | < 1000 |
| CNCCNC(=O)[C@H]1Cc2cc(Cl)cc(-c3ccnc4cc(CO)sc34)c2O1 [(R)-5-chloro-7-(2-(hydroxymethyl)thieno[3,2-b]pyridin-7-yl)-N-(2-(methylamino)ethyl)-2,3-dihydrobenzofuran-2-carboxamide] | < 1000 |
| N#Cc1cc2c(c(-c3ccnc4cc(CO)sc34)c1)O[C@@H](C(=O)N1CCNCC1)C2 [(R)-7-(2-(hydroxymethyl)thieno[3,2-b]pyridin-7-yl)-2-(piperazine-1-carbonyl)-2,3-dihydrobenzofuran-5-carbonitrile] | < 1000 |
| Cn1nc([C@H]2Cc3cc(Cl)cc(-c4ccnc5ccsc45)c3O2)c2c1CCNC2 [(R)-7-(5-chloro-2-(1-methyl-4,5,6,7-tetrahydro-1H-pyrazolo[4,3-c]pyridin-3-yl)-2,3-dihydrobenzofuran-7-yl)thieno[3,2-b]pyridine] | 1000 to 10000 |
| Cn1nc2c(c1[C@H]1Cc3cc(Cl)cc(-c4ccnc5ccsc45)c3O1)CNCC2 [(R)-7-(5-chloro-2-(2-methyl-4,5,6,7-tetrahydro-2H-pyrazolo[4,3-c]pyridin-3-yl)-2,3-dihydrobenzofuran-7-yl)thieno[3,2-b]pyridine] | < 1000 |
| Clc1cc2c(c(-c3ccnc4ccsc34)c1)O[C@@H](c1[nH]nc3c1CNCC3)C2 [(R)-7-(5-chloro-2-(4,5,6,7-tetrahydro-2H-pyrazolo[4,3-c]pyridin-3-yl)-2,3-dihydrobenzofuran-7-yl)thieno[3,2-b]pyridine] | < 1000 |
| N#Cc1cc2nccc(-c3cc(Cl)cc4c3O[C@@H](C(=O)N3CCNCC3)C4)c2o1 [(R)-7-(5-chloro-2-(piperazine-1-carbonyl)-2,3-dihydrobenzofuran-7-yl)furo[3,2-b]pyridine-2-carbonitrile] | 1000 to 10000 |
| N#Cc1cc2nccc(-c3cc(Cl)cc4c3O[C@@H](C(=O)N3CCNCC3)C4)c2s1 [(R)-7-(5-chloro-2-(piperazine-1-carbonyl)-2,3-dihydrobenzofuran-7-yl)thieno[3,2-b]pyridine-2-carbonitrile] | 1000 to 10000 |
